Target: T1, CHK1 (Cricetulus griseus, UniProt G3I7I8)
T1 construct: gene Chek1
T1 sequence (G3I7I8 1-476): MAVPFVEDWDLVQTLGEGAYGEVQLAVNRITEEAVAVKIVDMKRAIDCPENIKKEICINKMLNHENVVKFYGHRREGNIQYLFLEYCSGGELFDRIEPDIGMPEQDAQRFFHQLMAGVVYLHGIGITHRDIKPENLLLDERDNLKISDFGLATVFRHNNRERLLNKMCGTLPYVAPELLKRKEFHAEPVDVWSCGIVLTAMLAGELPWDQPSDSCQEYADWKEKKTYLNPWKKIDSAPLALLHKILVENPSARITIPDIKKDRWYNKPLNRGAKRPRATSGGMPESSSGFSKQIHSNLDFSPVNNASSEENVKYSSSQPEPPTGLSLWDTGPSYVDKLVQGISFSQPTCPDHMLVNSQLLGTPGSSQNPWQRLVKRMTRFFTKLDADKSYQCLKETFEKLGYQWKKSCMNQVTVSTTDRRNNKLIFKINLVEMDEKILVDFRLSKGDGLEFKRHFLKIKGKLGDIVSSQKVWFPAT
Assay: Western blot of CHK1 S296 autophosphorylation in rucaparib-treated V-C8 and V-C8.B2 cells
Format: cell-based
Conditions: read-out: % inhibition at 50 nM

inhibition at 0.05 µM: 91.4%
Structure (SMILES): Cn1cc(-c2[nH]c3cc(NC(=O)[C@H](N)C4CCCCC4)cc4c3c2C=NNC4=O)cn1 [PF-477736]

Source: publication PMC7226483, “Exploring the Synergy between PARP and CHK1 Inhibition in Matched BRCA2 Mutant and Corrected Cells” (Cancers, 2020)
